Measured values published in ChEMBL document CHEMBL1151341, “Constituents of Nealchornea yapurenis (Euophorbiaceae)” (J Nat Prod, 1980).
The source made the active and inactive calls. No cut-off for these calls is given here.

System: P388
Assay: Antitumor activity against mouse P388 cells xenografted in mouse at 50 to 400 mg/kg
Format: functional, organism-based

For COc1cc2ccc(=O)oc2cc1O, the Activity was “inactive”.

With CC[C@H](CC[C@@H](C)[C@H]1CC[C@H]2[C@@H]3CC=C4C[C@@H](O)CC[C@]4(C)[C@H]3CC[C@]12C)C(C)C the Activity was “inactive”.

For CC[C@H](CC[C@@H](C)[C@H]1CC[C@H]2[C@@H]3CC=C4C[C@@H](O[C@@H]5O[C@H](CO)[C@@H](O)[C@H](O)[C@H]5O)CC[C@]4(C)[C@H]3CC[C@]12C)C(C)C, the Activity was “inactive”.

In the case of CCCCCCCCCCCCCCCCCCCCCCCCCC(=O)O, the Activity is reported as “inactive”.
